Several values for one entry are separate records, joined by “and”; a condition that tells them apart may be missing. Identical values can stand only once. Activity calls are given as the source filed them.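 How the source made its calls: active means fitted EC50 of 10 µM or less with% response changing by at least 30 points across doses; inactive means the rest.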
Target: GTPase HRas (Homo sapiens) (UniProt P01112)
Test: activated H-Ras mutant GTP-binding inhibitors, SAR follow-up, biochemical, multiplex bead flow cytometry, round 2 (AID 588628)
Conditions: bead-based flow cytometry, Bodipy-FL-GTP binding, EDTA; for % response (binding remaining): at 100 µM (top of the series)

Chain of GTPase HRas (Homo sapiens) (P01112 whole entry, looked up): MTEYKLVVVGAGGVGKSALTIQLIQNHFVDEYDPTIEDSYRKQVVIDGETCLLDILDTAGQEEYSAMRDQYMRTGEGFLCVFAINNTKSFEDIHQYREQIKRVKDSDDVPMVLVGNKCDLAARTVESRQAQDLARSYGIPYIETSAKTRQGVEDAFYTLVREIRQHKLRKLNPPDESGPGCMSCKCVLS

SMILES	EC50	% response (binding remaining)
CC1(C)Cc2c(sc(NC(=S)NC(=O)c3ccccc3F)c2C(=O)O)CO1	283 nM	
CC1(C)Cc2c(sc(NC(=O)NC(=O)c3ccccc3)c2C(=O)O)CO1	824 nM	
CC1(C)Cc2c(sc(NC(=S)NC(=O)C3CCCCC3)c2C(=O)O)CO1	585 nM	
CC1(C)Cc2c(sc(NC(=S)NC(=O)c3cccc(F)c3)c2C(=O)O)CO1	535 nM	
CC1(C)Cc2c(sc(NC(=S)Nc3ccccc3)c2C(=O)O)CO1		inactive
CC1(C)Cc2c(sc(NC(=S)NC(=O)c3ccccc3Br)c2C(=O)O)CO1	1210 nM	
CC1(C)Cc2c(sc(NC(=S)NC(=O)c3ccc(Br)cc3)c2C(=O)O)CO1	564 nM	
CC1(C)Cc2c(sc(NC(=S)NC(=O)c3cccc(Br)c3)c2C(=O)O)CO1		inactive
COc1ccccc1C(=O)NC(=S)Nc1sc2c(c1C(=O)O)CC(C)(C)OC2		inactive
Cc1cccc(C(=O)NC(=S)Nc2sc3c(c2C(=O)O)CC(C)(C)OC3)c1	854 nM	
O=C(NC(=S)Nc1sc2c(c1C(=O)O)CCOC2)c1ccccc1	85 nM and 207 nM	
Cc1ccccc1C(=O)NC(=S)Nc1sc2c(c1C(=O)O)CC(C)(C)OC2	379 nM	

The remaining lines, values ahead:

EC50	% response (binding remaining)	SMILES
276 nM		COc1ccc(C(=O)NC(=S)Nc2sc3c(c2C(=O)O)CC(C)(C)OC3)cc1
205 nM		COc1cccc(C(=O)NC(=S)Nc2sc3c(c2C(=O)O)CC(C)(C)OC3)c1
53 nM		CC1(C)CCc2sc(NC(=S)NC(=O)c3ccccc3)c(C(=O)O)c2C1
24 nM		CC1(C)Cc2c(sc(NC(=S)NC(=O)c3cccs3)c2C(=O)O)CO1
217 nM		CC1Cc2c(sc(NC(=S)NC(=O)c3ccccc3)c2C(=O)O)CO1 (centres undefined)
125 nM		CC(C)(C)C1Cc2c(sc(NC(=S)NC(=O)c3ccccc3)c2C(=O)O)CO1 (centres undefined)
33 nM		O=C(NC(=S)Nc1sc2c(c1C(=O)O)CC1(CCCC1)OC2)c1ccccc1
35 nM		CCC1(C)Cc2c(sc(NC(=S)NC(=O)c3ccccc3)c2C(=O)O)CO1 (centres undefined)
178 nM		Cc1ccc(C(=O)NC(=S)Nc2sc3c(c2C(=O)O)CC(C)(C)OC3)cc1
21 nM		CC1(C)Cc2c(sc(NC(=S)NC(=O)c3ccccc3)c2C(=O)O)CO1
65 nM		CC1(C)Cc2c(sc(NC(=S)NC(=O)c3ccco3)c2C(=O)O)CO1
91 nM		CC1(C)Cc2c(sc(NC(=S)NC(=O)c3ccc(F)cc3)c2C(=O)O)CO1
